According to patent US11957671B2, “Benzodioxane modulators of leukotriene A4 hydrolase (LTA4H) for prevention and treatment of aging-associated diseases” (Alkahest, Inc., priority 2021, dated 2024):

Tests used:
[1] = test system: aged C57BL6 mice; test: Rotarod; assay type: in vivo, mouse; details: 19 days of dosing
Method: Mice were trained by allowing to run on the rotarod at 5 RPM speed setting on the i-Therm CTR-44 Rotarod for 5 minutes, if the mouse fell off it was put back on until it was able to complete minutes without falling off. After 15 minutes, if the mouse is unable to stay on the rotarod for a continuous 5 minutes, the mouse is excluded from analysis. Mice were then given 3 trials where the speed was increased from 5 RPM to 40 RPM over 90 seconds; the time at which the mouse fell off was recorded for each trial. Inter-trial interval is at least 15 minutes to allow the mice adequate rest. The rotarod is cleaned with 70% ethanol between trials.

[2] = test system: aged C57BL/6 mice; test: Long term potentiation (LTP) in hippocampal slices; assay type: in vivo, mouse; details: 1 month bid po, 1 mg/kg Compound 1 or 2.5 mg/kg SC57461A
Method: Aged C57BL/6 mice (21 months of age) were treated for 1 month bid po with vehicle, 1 mg/kg Compound 1, or 2.5 mg/kg SC57461A (n=5 mice per treatment group). Electrophysical recordings were performed at AfaSci, Inc, as follows. Animals were deeply anesthetized with halothane and decapitated. The brain was quickly taken out and placed into ice-cold artificial cerebrospinal fluid (ACSF) that was continuously bubbled with 5% CO2/95% O2. The ACSF was composed of (in mM) NaCl 130.0, KCl 2.5, KH2PO4 1.2, CaCl2 2.4, MgSO4 1.3, NaHCO326.0 and glucose 10.0 (pH 7.4). Hippocampal slices (400 μm thick) were prepared using a tissue slicer (Stoelting Co., IL) and incubated at room temperature in continuously oxygenated ACSF for at least 1 h before being recorded with submerged mode in chamber (Harvard Apparatus) at room temperature. Data were collected with an Axopatch-2B amplifier and pClamp 10.4 program (Axon Instruments) through digidata 1320A.
Field population spike (PS) was recorded using glass microelectrode filled with ACSF (resistance: 1-3 MO). Biphasic current pulses (0.2 ms duration for one phase, 0.4 ms in total) were delivered in 10 s intervals through a concentric bipolar stimulating electrode (FHC, Inc.). […] To record field population spikes in dorsal dentate gyrus, the stimulating electrode was placed on the hippocampal fissure to stimulate the bypassing perforant pathway fibers and the recording electrode was placed on inner part of granular cell layer. To record field EPSPs in DG, the stimulating electrode was placed on the hippocampal fissure to stimulate the bypassing perforant pathway fibers and the recording electrode was placed on inner part of granular cell layer. Slices were recorded within 8 hours after dissection. Titanic stimulation consisted of 2 trains of 100 pulses (0.4 ms bipolar pulse duration, 100 Hz) lasting for 1 second with 5 seconds of interval. The slope of EPSP and amplitude of population spike were measured from the initial phase of negative wave with Clampfit10.4. Each data point was measured with average of 3 consecutive traces. LTP was plotted as the percentage to baseline following high frequency stimulation (mean±SEM).

[3] = test system: aged wild type (WT; C57BL/6) mice; test: Contextual Fear Conditioning (CFC); assay type: in vivo, mouse; details: 10 mg/kg PO daily, after 8 days of treatment
Method: Mice were brought into the testing room immediately before their trial to avoid exposure to sounds and scents from testing. Day 1: For training, mice were placed in the chambers, bright house light and fan on, for 2 minutes. Then an auditory cue (2000 Hz, 70 dB, conditioned stimulus (CS)) was presented for 30 seconds. A 2 second foot shock (0.6 mA; unconditioned stimulus (US)) was administered for the final 2 seconds of the CS. This procedure was repeated once, each after a 2-minute interval, and the mouse was removed from the chamber 30 seconds after the second shock. The pans, chamber walls and grid floors were cleaned with 70% ethanol between trials. Day 2: […] after the training, the mouse was returned to the same chamber in which the training occurred (memory for context), and freezing behavior was recorded for 3 min. The mouse was returned to its home cage. The pans, chamber walls, and grid floors were cleaned with 70% ethanol between trials. Day 3: 24 hours after context testing, the mouse was returned to the same chamber and freezing was recorded in a novel environment (altered context) and in response to the cue (memory for cue). […] The mouse was placed in the novel environment and freezing was recorded for 2 minutes. The auditory cue (2000 Hz, 70 dB, CS) was then presented for 30 seconds, and freezing was again recorded for 2 minutes. […]

[4] = target: LTA4H (Mus musculus (Mouse), UniProt P24527); test: LTB4 Target Engagement Assay (in vivo dosing, calcimycin stimulated blood); details: for LTB4 levels in calcimycin stimulated plasma: aged mice
Sequence of LTA4H (P24527 whole entry): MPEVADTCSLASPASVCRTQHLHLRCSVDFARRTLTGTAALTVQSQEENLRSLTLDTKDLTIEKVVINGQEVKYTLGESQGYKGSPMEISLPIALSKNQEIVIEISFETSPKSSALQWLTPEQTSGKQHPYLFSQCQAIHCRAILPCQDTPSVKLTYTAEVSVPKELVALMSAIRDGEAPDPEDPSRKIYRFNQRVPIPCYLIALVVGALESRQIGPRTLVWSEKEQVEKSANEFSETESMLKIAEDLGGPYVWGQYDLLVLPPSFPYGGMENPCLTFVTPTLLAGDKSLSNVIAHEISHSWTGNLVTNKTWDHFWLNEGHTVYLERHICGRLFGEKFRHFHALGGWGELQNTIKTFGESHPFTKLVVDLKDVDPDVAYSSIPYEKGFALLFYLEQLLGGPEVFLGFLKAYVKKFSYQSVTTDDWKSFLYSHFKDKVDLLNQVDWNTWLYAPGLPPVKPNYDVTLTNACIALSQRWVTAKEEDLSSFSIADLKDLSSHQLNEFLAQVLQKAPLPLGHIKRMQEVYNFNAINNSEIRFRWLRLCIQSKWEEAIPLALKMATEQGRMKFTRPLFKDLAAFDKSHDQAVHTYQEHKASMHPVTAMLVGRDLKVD
Method: Whole blood was collected by cardiac puncture using heparin as an anti-coagulant. 160 μL of whole blood was collected in duplicate for each mouse and incubated for 15 minutes in 37° C./5% CO2. During this time a 0.1 mM calcimycin stock was made by diluting 10 mM calcimycin (Sigma C7522) formulated in DMSO into PBS. Control solution was made by diluting the same volume of DMSO in PBS. Both solutions were sonicated for 10 minutes in a 37° C. water bath. 40 μL of 0.1 mM calcimycin (stimulated) or control solution (unstimulated) was added to each well of whole blood and incubated at 37° C./5% CO2 for 30 minutes. Whole blood was spun for 10 minutes at 1000×g to separate out plasma. LTB4 levels were detected by running an ELISA on the collected stimulated and unstimulated plasma diluted 1:10 (Enzo Life Sciences, ADI-901-068). The ELISA plates were read on a BMG LABTECH CLARIOstar plate reader at 405 nm.
FIGS. 60-62 report the results of in vivo target engagement assays with Compound 1 in mouse plasma. Whole blood from mice dosed with Compound 1 for 10-day FIG. 60 or 4 weeks FIG. 61 was incubated with a calcium ionophore to stimulate LTB4 release. Plasma was generated and LTB4 levels were measured using ELISA. LTB4 is the product of LTA4H hydrolysis so this assay reports on LTA4H enzymatic activity.

O=C(O)C1CCN(Cc2ccc([C@H]3COc4ccccc4O3)cc2)CC1 [Example 1, 1-{4-[(2S)-2,3-dihydro-1,4-benzodioxin-2-yl]benzyl}piperidine-4-carboxylic acid]
average time before falling on the rotarod [1]: no change in average time before falling | LTP, CA1 region of the hippocampus [2]: increase in LTP | LTP, DG region of the hippocampus [2]: increase in LTP | percent time freezing during testing phase of CFC [3]: increased freezing time | LTB4 levels in calcimycin stimulated plasma ([4]; 4 weeks of dosing): inhibition of LTA4H | LTB4 levels in calcimycin stimulated plasma ([4]; 10 days of dosing): inhibition of LTA4H | LTB4 inhibition, compound made for 3 independent studies ([4]; young mice, 2 hours after a single dose): no difference in the amount of inhibition across the 3 independent studies
